# In US20250115565A1, “SOLID CRYSTALLINE FORMS OF HELICASE-PRIMASE INHIBITORS AND PROCESS OF PREPARATION THEREOF” (INNOVATIVE MOLECULES GMBH, priority 2022, published 2025):
# Where a name gives a salt, the structure may show the parent alone.
# Tests used:
# [1] = Relative bioavailability of crystalline and salt forms after single oral dose in male mice (Example 6); assay type: in vivo; conditions: male C57bl/6 mice, single oral dose adjusted to 10 mg/kg free IM-250, suspension in 0.5% HPMC in PBS, blood
# Method: The relative bioavailability of crystalline and different salt forms versus suspended IM-250 (derived from a DMSO stock solution) after single dose oral administration in male C57bl/6 mice was examined. Animals (3 per group) had food withdrawn approximately 2 h before administration. The suspension was prepared from a DMSO stock solution, which was diluted 1:20 with 0.5% HPMC in PBS, ultrasonificated and orally administered with a gavage volume of 5 mL/kg. The suspensions of crystalline and different salt forms were prepared directly by adding powder to 0.5% HPMC in PBS, ultrasonificated and orally administered with a gavage volume of 5 mL/kg. Blood samples were taken at 0.5 h, 1 h, 2 h, 5 h, 12 h and 24 h via capillary microsampling and bioanalytics was measured via non-chiral LC-MS. The area-under-curve (AUC0-24 h) and relative bioavailability towards the IM-250 suspension was calculated. The doses for the salts were adjusted to 10 mg/kg free IM-250.
# [2] = Chemical accelerated stability by HPLC after temperature and humidity stress (Example 7); assay type: physicochemical; conditions: for % of unchanged compound left: HPLC UV 285 nm, 3 assays
# Method: (§1) The chemical and physical accelerated stability of the crystalline material was studied in order to anticipate potential stability issues upon storage or ageing. Crystals were stored for 1 month at 40° C./75% relative humidity (RH) and were also stored for 1 month at 60° C. (and % HR<10% RH). The chemical stability was assessed by HPLC by external standardization versus a freshly prepared (non-stressed) standard solution. For that purpose, six samples (exactly weighted) are stored for each condition: 3 for the 2-weeks stability and 3 for the 4-weeks stability. The physical stability was also assessed by XRPD, DSC analyses by comparing the XRPD and DSC profiles of stressed samples to those of a non-stressed sample. For that purpose, two more samples (one per time point) are stored in each condition (respectively 40° C./75% RH and 60° C.).
# [3] = Physical accelerated stability by XRPD and DSC after temperature and humidity stress (Example 7); assay type: physicochemical
# Method: XRPD analysis was performed on a Bruker D2 Phase diffractometer using a copper anti-cathode, a mono-crystalline silicone sample holder and a position sensitive detector (LynxExe). Powder sample was loaded on a flat mono-crystalline silicone sample holder in a way to avoid preferred orientation and to sensure planarity of the speciem surface. Instrument operation conditions were as follows: ambient temperature and atmosphere; X-ray generator voltage 30 kV and intensity 10 mA; X-ray source: target Copper; emission radiation Kα1=0.15406 nm, Kα2=0.15444 nm, ratio Kα2/Kα1=0.5, KB filter radiation Nickel; Slit: anti-divergence […], Sollers slit 2.5°; Goniometer: angular sector analyzed from 4° to 45° or 4° to 50° for 20, step size 0.07° for 20; Sample holder rotation speed: 30 rpm; Detection: exposition time per step size of goniometer 1 s.
# DSC analysis was performed on a Q1000 TA Instruments analyzer. The sample to be analyzed was weighed in an aluminium capsule, which was then crimped and put into the calorimeter oven. Instrument operation conditions were as follows: heater ramp 10° C./min; final temperature 230° C. or 240° C.; carrier gas: nitrogen (Messer “qualité Azote 5.0”) with flow rate of 50 mL/min.
# as §1
# [4] = ICH long term and accelerated stability testing (Example 8); assay type: physicochemical
# Method: The long term and accelerated chemical and physical stability was assessed at a Contract Manufacturing Organization. IM-250 HCl salt samples were primary packaged in double PE bags (50 μm, Semadeni, e.g. cat. #2439 with each tag tied with plastic twist). The secondary package was a HDPE-drum closed with a HDPE screw cap (CurTec). The storage conditions were 25±2° C./60±5% relative humidity and 40±2° C./75±5% relative humidity.
# [5] = Relative bioavailability and brain exposure of d3-IM-250 HCl salt versus IM-250 HCl salt in male mice (Example 12); assay type: in vivo; conditions: mouse, male C57bl/6 mice, single oral dose 10 mg/kg; for Kp at 24 h: brain and whole blood, 24 h post dose, read-out: blood/brain ratio; for AUC(0-t): read-out: AUC0-24; for Cmax: suspension in 0.5% HPMC in PBS; for concentration at 24 h: brain 24 h post dose after PBS perfusion, read-out: brain level @ 24 h
# Method: Animals (3 per group) had food withdrawn approximately 2 h before administration of 10 mg/kg of the test items. The suspensions were prepared directly by adding powder to 0.5% HPMC in PBS, ultrasonificated and orally administered with a gavage volume of 5 mL/kg. Blood samples (20 μL) were taken at 0.5 h, 1 h, 2 h, 5 h, 12 h and 24 h via capillary microsampling, collected from the tail vein into Li-heparin tubes. The samples were frozen on dry ice within 1-2 min of sampling and stored at −20° C. until LC-MS/MS analysis measured via non-chiral LC-MS. After 24 h post dose, animals were sacrificed and perfused with PBS until PBS was transparent and brain was collected and stored at −20° C. until processed for LC-MS analysis to determine the brain/blood exposure. The peak blood concentration (Cmax), elimination half-life (t1/2), area-under-curve (AUC0-24 h) and blood/brain ratio (as an easily obtainable surrogate parameter for nerve tissue exposure) was determined.
# [6] = at least 4 weeks after storage at 40° C./75% RH and at 60° C.
smiles,measurement,setting,value
"Cc1nc(N(C)C(=O)Cc2ccc(-c3cc(F)ccc3F)cc2)sc1[S@@](C)(=N)=O [IM-250 Free base Form I, (S)-2-(2′,5′-Difluoro-[1,1′-biphenyl]-4-yl)-N-methyl-N-(4-methyl-5-(S-methylsulfon-imidoyl)thiazol-2-yl)acetamide]",AUC0-24 h,[1],7683 ng·h/mL
same,% of unchanged compound left,"[2]; 40° C./75% RH, 2 wk",99.4%
same,% of unchanged compound left,"[2]; 40° C./75% RH, 4 wk",100.2%
same,% of unchanged compound left,"[2]; 60° C., 2 wk",99.6%
same,% of unchanged compound left,"[2]; 60° C., 4 wk",101.4%
same,chemical stability as a bulk powder,[2]; [6],chemically stable
same,DSC Enthalpy transition,"[3]; 40° C./75% RH, 2 wk",-77 J/g
same,DSC melting endotherm Temperature Onset,"[3]; 40° C./75% RH, 2 wk",163 °C
same,DSC melting endotherm Temperature Peak,"[3]; 40° C./75% RH, 2 wk",165 °C
same,DSC Enthalpy transition,"[3]; 40° C./75% RH, 4 wk",-80 J/g
same,DSC melting endotherm Temperature Onset,"[3]; 40° C./75% RH, 4 wk",163 °C
same,DSC melting endotherm Temperature Peak,"[3]; 40° C./75% RH, 4 wk",165 °C
same,DSC Enthalpy transition,"[3]; 60° C., 2 wk",-85 J/g
same,DSC melting endotherm Temperature Onset,"[3]; 60° C., 2 wk",163 °C
same,DSC melting endotherm Temperature Peak,"[3]; 60° C., 2 wk",164 °C
same,DSC Enthalpy transition,"[3]; 60° C., 4 wk",-80 J/g
same,DSC melting endotherm Temperature Onset,"[3]; 60° C., 4 wk",163 °C
same,DSC melting endotherm Temperature Peak,"[3]; 60° C., 4 wk",165 °C
same,physical stability as a bulk powder,[3]; [6],physically stable
same,DSC Enthalpy transition,"[3]; no stress, initial analysis",-83 J/g
same,DSC melting endotherm Temperature Onset,"[3]; no stress, initial analysis",163 °C
same,DSC melting endotherm Temperature Peak,"[3]; no stress, initial analysis",164 °C
Cc1nc(N(C)C(=O)Cc2ccc(-c3cc(F)ccc3F)cc2)sc1[S@@](C)(=N)=O [IM-250 HCl salt],AUC0-24 h,[1],68289 ng·h/mL
same,"Assay (HPLC, % w/w, as-is)",[4]; 6 months 25° C./60% RH,97.9%
same,Chiral purity (HPLC area %),[4]; 6 months 25° C./60% RH,99.9%
same,Color and apperance,[4]; 6 months 25° C./60% RH,white to off-
same,Purity (HPLC area %),[4]; 6 months 25° C./60% RH,99.2%
same,Water content (% w/w),[4]; 6 months 25° C./60% RH,0.08%
same,"Assay (HPLC, % w/w, as-is)",[4]; 6 months 40° C./75% RH,98.6%
same,Chiral purity (HPLC area %),[4]; 6 months 40° C./75% RH,99.9%
same,Color and apperance,[4]; 6 months 40° C./75% RH,white to off-
same,Identity by XRPD,[4]; 6 months 40° C./75% RH,conforms to
same,Purity (HPLC area %),[4]; 6 months 40° C./75% RH,99.1%
same,Water content (% w/w),[4]; 6 months 40° C./75% RH,0.10%
same,"Assay (HPLC, % w/w, as-is)",[4]; Initial,98.5%
same,Chiral purity (HPLC area %),[4]; Initial,99.8%
same,Color and apperance,[4]; Initial,white to off-
same,Identity by XRPD,[4]; Initial,conforms to
same,Purity (HPLC area %),[4]; Initial,99.2%
same,Water content (% w/w),[4]; Initial,0.08%
same,physical stability as a bulk powder,[4]; at least 6 month after storage at 25° C. and at 40° C.,physically stable
same,Kp at 24 h,[5],0.6 ± 0.2
same,half-life,"[5]; whole blood, blood",342 min
same,AUC(0-t),"[5]; whole blood, blood",14400 ng·h/mL
same,Cmax,"[5]; whole blood, blood",1210 ng/mL
same,concentration at 24 h,[5],175 ng/g
Cc1nc(N(C)C(=O)Cc2ccc(-c3cc(F)ccc3F)cc2)sc1[S@@](C)(=N)=O [IM-250 Napadisylate],AUC0-24 h,[1],48241 ng·h/mL
[2H]C([2H])([2H])c1nc(N(C)C(=O)Cc2ccc(-c3cc(F)ccc3F)cc2)sc1[S@@](C)(=N)=O [d3-IM-250 HCl salt],Kp at 24 h,[5],0.49 ± 0.1
same,AUC(0-t),"[5]; whole blood, blood",28600 ng·h/mL
same,Cmax,"[5]; whole blood, blood",2570 ng/mL
same,concentration at 24 h,[5],568 ng/g
"Cc1nc(N(C)C(=O)Cc2ccc(-c3cc(F)ccc3F)cc2)sc1[S@@](C)(=N)=O [suspended IM-250 from DMSO, (S)-2-(2′,5′-Difluoro-[1,1′-biphenyl]-4-yl)-N-methyl-N-(4-methyl-5-(S-methylsulfon-imidoyl)thiazol-2-yl)acetamide]",AUC0-24 h,[1],66406 ng·h/mL
